According to ChEMBL document CHEMBL1201862, “PubChem BioAssay data set” (2004):
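Interpolation was linear, between the two tested concentrations surrounding the appropriate level; five concentrations were tested over 48 hours in 96-well plates. GI50 = concentration required for 50% inhibition of growth.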 Activity calls are given as the source filed them. Rule as the data show it: active = GI50 up to about 1.1 µM and inactive = higher.

Experiments:
Experiment in all cases: NCI tumour cell line growth inhibition, 48 h
UO-31 = test system: UO-31
NCI-H226 = test system: NCI-H226
NCI-H23 = test system: NCI-H23
SW-620 = test system: SW-620
HOP-92 = test system: HOP-92
M14 = test system: M14
OVCAR-3 = test system: OVCAR-3
SF-268 = test system: SF-268
HOP-62 = test system: HOP-62
HT-29 = test system: HT-29
A498 = test system: A498
DMS-114 = test system: DMS-114
NCI-H522 = test system: NCI-H522
Malme-3M = test system: Malme-3M
MCF7 = test system: MCF7
MDA-MB-435 = test system: MDA-MB-435
DU-145 = test system: DU-145
Hs-578T = test system: Hs-578T
T47D = test system: T47D
MDA-N = test system: MDA-N

Measured: GI50

Nc1ccc(C(=O)NN2C(=O)C(Cl)C2c2cc(Br)ccc2O)cc1 (stereo not given)
inactive: UO-31 > 100 µM | NCI-H226 > 100 µM | NCI-H23 > 100 µM | SW-620 > 100 µM | HOP-92 > 100 µM | M14 > 100 µM | OVCAR-3 > 100 µM | SF-268 50.5 µM | HOP-62 > 100 µM | HT-29 64.6 µM | A498 > 100 µM | DMS-114 44.5 µM | NCI-H522 22.4 µM | Malme-3M > 100 µM

CSCCOC(=O)C(=[N+]=[N-])c1ccc([N+](=O)[O-])cc1
inactive: UO-31 > 100 µM | NCI-H226 > 100 µM | NCI-H23 > 100 µM | SW-620 > 100 µM | M14 > 100 µM | OVCAR-3 > 100 µM | SF-268 > 100 µM | HOP-62 > 100 µM | HT-29 > 100 µM | DMS-114 > 100 µM | NCI-H522 > 100 µM | Malme-3M > 100 µM

COc1cc(OC)c(/C=C2\N=C(C)N(Nc3nnc(NN4C(=O)/C(=C/c5c(OC)cc(OC)cc5OC)N=C4C)c4ccccc34)C2=O)c(OC)c1
inactive: NCI-H226 > 100 µM | NCI-H23 > 100 µM | SW-620 > 100 µM | HOP-92 > 100 µM | M14 > 100 µM | SF-268 > 100 µM | HOP-62 > 100 µM | HT-29 > 100 µM | A498 > 100 µM | DMS-114 > 100 µM | NCI-H522 > 100 µM

N#C/C(=C\c1c(Cl)cccc1Cl)c1ccccc1
inactive: UO-31 17.7 µM | NCI-H226 > 22.9 µM | NCI-H23 14.9 µM | SW-620 2.74 µM | HOP-92 8.49 µM | M14 6.4 µM | OVCAR-3 3.8 µM | SF-268 18.5 µM | HOP-62 3.83 µM | HT-29 4.19 µM | A498 3.13 µM | DMS-114 12.4 µM | NCI-H522 14.2 µM | Malme-3M 10.2 µM

CCN(CC)c1oc(N(CC)CC)c(C(=O)Nc2ccccn2)c(=O)c1C(C)=O
inactive: UO-31 > 100 µM | NCI-H226 > 100 µM | NCI-H23 > 100 µM | SW-620 > 100 µM | HOP-92 > 100 µM | M14 > 100 µM | OVCAR-3 > 100 µM | SF-268 90.8 µM | HOP-62 > 100 µM | HT-29 > 100 µM | A498 > 100 µM | DMS-114 > 100 µM | NCI-H522 > 100 µM | Malme-3M > 100 µM

CCCCC(N)CSSCC(N)CCCC (stereo not given)
inactive: UO-31 21.4 µM | NCI-H226 23.5 µM | NCI-H23 24.8 µM | SW-620 23.2 µM | M14 17.9 µM | OVCAR-3 20.8 µM | SF-268 26.9 µM | HOP-62 27.3 µM | HT-29 23.7 µM | A498 25.8 µM | DMS-114 17.7 µM | NCI-H522 15 µM | Malme-3M 18.1 µM

O=C(CN1CCOCC1)Nc1nc(-c2ccc(Cl)cc2)cs1
inactive: UO-31 20.3 µM | NCI-H226 24 µM | NCI-H23 15.1 µM | SW-620 41.8 µM | HOP-92 53.7 µM | M14 32.2 µM | OVCAR-3 22.3 µM | SF-268 25.1 µM | HOP-62 22.6 µM | HT-29 36.1 µM | A498 23.1 µM | DMS-114 21.3 µM | Malme-3M 23.1 µM

COc1cc2c(c(OC)c1OC)[C@@H]1CCCCC[C@@H]1CCC2=O
inactive: UO-31 > 100 µM | NCI-H226 > 100 µM | NCI-H23 > 100 µM | SW-620 > 100 µM | HOP-92 82.6 µM | M14 > 100 µM | OVCAR-3 97.3 µM | SF-268 76 µM | HOP-62 > 100 µM | HT-29 > 71.6 µM | A498 > 100 µM | DMS-114 29.4 µM | NCI-H522 > 66.7 µM | Malme-3M > 100 µM

O=S(=O)(c1ccccc1)n1cc(C[P+](c2ccccc2)(c2ccccc2)c2ccccc2)c2ccccc21
inactive: UO-31 3.38 µM | NCI-H226 4.81 µM | NCI-H23 2.99 µM | SW-620 4.59 µM | HOP-92 1.87 µM | M14 2.64 µM | OVCAR-3 2.95 µM | SF-268 5.66 µM | HOP-62 3.19 µM | HT-29 3.4 µM | A498 15.6 µM | DMS-114 3.37 µM | NCI-H522 2.36 µM | Malme-3M 4.38 µM

CC(CCC(=O)O)c1ccc(Br)cc1 (stereo not given)
inactive: UO-31 > 100 µM | NCI-H226 > 100 µM | NCI-H23 > 100 µM | SW-620 > 100 µM | M14 > 100 µM | OVCAR-3 > 100 µM | SF-268 > 100 µM | HOP-62 > 100 µM | HT-29 > 100 µM | DMS-114 > 100 µM | NCI-H522 > 100 µM | Malme-3M > 100 µM

CC(=O)c1ccccc1NC(=O)C(=O)C(C(=O)c1ccc2ccccc2c1)C1OC(=O)c2ccccc21 (stereo not given)
inactive: UO-31 13.3 µM | NCI-H226 2.26 µM | NCI-H23 6.49 µM | SW-620 7.83 µM | HOP-92 12.4 µM | M14 16.4 µM | OVCAR-3 9.82 µM | SF-268 9.27 µM | HOP-62 10.7 µM | HT-29 34.8 µM | A498 15.2 µM | DMS-114 7.98 µM | NCI-H522 10.7 µM | Malme-3M 3.7 µM

CCCCCCCCCCCOc1ccc(C(=O)C(=O)c2ccc(OCCCCCCCCCCC)c(OCCCCCCCCCCC)c2)cc1OCCCCCCCCCCC
inactive: UO-31 > 100 µM | NCI-H226 > 100 µM | NCI-H23 > 100 µM | SW-620 > 100 µM | M14 > 100 µM | OVCAR-3 > 100 µM | SF-268 > 100 µM | HOP-62 > 100 µM | HT-29 > 100 µM | A498 > 100 µM | DMS-114 > 100 µM | NCI-H522 > 100 µM | Malme-3M > 100 µM

CC(C)C(Nc1c2ccccc2[n+](C)c2ccccc12)C(=O)O (stereo not given)
inactive: UO-31 > 100 µM | NCI-H226 > 100 µM | NCI-H23 > 100 µM | SW-620 > 100 µM | M14 > 100 µM | OVCAR-3 > 100 µM | SF-268 > 100 µM | HOP-62 > 100 µM | HT-29 > 100 µM | A498 > 100 µM | DMS-114 > 100 µM | NCI-H522 1.3 µM | Malme-3M > 100 µM

CCCC[C@H](CCc1ccccc1)N(C(=O)OC)N1CCC[C@H]1COC
inactive: UO-31 16.7 µM | NCI-H226 20.2 µM | NCI-H23 17.2 µM | SW-620 16.3 µM | HOP-92 18.6 µM | M14 26 µM | OVCAR-3 18.3 µM | SF-268 19.5 µM | HOP-62 23 µM | HT-29 15.1 µM | A498 18.1 µM | DMS-114 15.8 µM | NCI-H522 14.1 µM | Malme-3M 16.3 µM

NCCCCNc1ccc2c(=O)[nH][nH]c(=O)c2c1
inactive: UO-31 > 100 µM | NCI-H226 > 100 µM | NCI-H23 > 100 µM | SW-620 > 100 µM | HOP-92 > 100 µM | M14 > 100 µM | OVCAR-3 > 100 µM | SF-268 > 100 µM | HOP-62 > 100 µM | HT-29 > 100 µM | A498 > 100 µM | DMS-114 > 100 µM | NCI-H522 > 100 µM | Malme-3M > 100 µM

Cc1ccc(C(=O)Nc2ccc(CP(=O)(O)O)cc2CP(=O)(O)O)cc1N
inactive: MCF7 > 100 µM | UO-31 > 100 µM | MDA-MB-435 > 100 µM | NCI-H226 > 100 µM | NCI-H23 > 100 µM | SW-620 > 100 µM | HOP-92 > 100 µM | M14 > 100 µM | OVCAR-3 > 100 µM | DU-145 > 100 µM | SF-268 > 100 µM | Hs-578T > 100 µM | HOP-62 > 100 µM | HT-29 > 100 µM | T47D > 100 µM | MDA-N > 100 µM | A498 > 100 µM | NCI-H522 > 100 µM | Malme-3M > 100 µM

CCN(CC)CCOc1ccc(N2Cc3ccccc3C2=O)cc1
inactive: MCF7 > 10 µM | UO-31 > 10 µM | MDA-MB-435 > 10 µM | NCI-H226 > 10 µM | NCI-H23 > 10 µM | SW-620 > 10 µM | HOP-92 > 10 µM | M14 > 10 µM | OVCAR-3 > 10 µM | DU-145 > 10 µM | SF-268 > 10 µM | Hs-578T > 10 µM | HOP-62 > 10 µM | HT-29 > 10 µM | T47D > 10 µM | MDA-N > 10 µM | A498 > 10 µM | NCI-H522 > 10 µM | Malme-3M > 10 µM

NC(=S)N1N=C2c3ccccc3CC[C@H]2[C@@H]1c1cccs1
inactive: UO-31 27.5 µM | NCI-H226 29 µM | NCI-H23 24.6 µM | SW-620 38.7 µM | HOP-92 68.7 µM | M14 22 µM | OVCAR-3 36.2 µM | SF-268 40.6 µM | HOP-62 33.3 µM | HT-29 24.1 µM | A498 60.3 µM | DMS-114 22.5 µM | NCI-H522 16.8 µM | Malme-3M 19.2 µM

O=C(O)COc1cc(-c2ccccc2)nc2ccccc12
inactive: MCF7 49 µM | UO-31 61.4 µM | MDA-MB-435 16 µM | NCI-H226 > 100 µM | NCI-H23 77.6 µM | SW-620 59.7 µM | HOP-92 > 100 µM | M14 71 µM | OVCAR-3 > 100 µM | DU-145 > 100 µM | SF-268 > 100 µM | Hs-578T 62.4 µM | HOP-62 95.9 µM | HT-29 35.4 µM | T47D > 100 µM | MDA-N 26.1 µM | A498 65.3 µM | NCI-H522 77.4 µM | Malme-3M > 100 µM
